From ChEMBL document CHEMBL1201862, “PubChem BioAssay data set” (2004)
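96-well plates; 48 h exposure; 5 concentrations. Endpoints by linear interpolation between flanking doses. Not reached: highest tested concentration assigned. GI50: concentration for 50% inhibition of growth.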 Activity calls are given as the source filed them. Rule as the data show it: active = GI50 up to about 1.1 µM and inactive = higher.

Assays:
Test in all cases: inhibition of tumour cell growth, NCI panel, 48 h
SK-MEL-28 = system: SK-MEL-28
A498 = system: A498
HCT-15 = system: HCT-15
HCT-116 = system: HCT-116
CAKI-1 = system: CAKI-1
OVCAR-5 = system: OVCAR-5
SNB-78 = system: SNB-78
OVCAR-8 = system: OVCAR-8
NCI-H23 = system: NCI-H23
SW-620 = system: SW-620
M19-MEL = system: M19-MEL
U-251 = system: U-251
UACC-257 = system: UACC-257
HOP-62 = system: HOP-62
EKVX = system: EKVX
HT-29 = system: HT-29
SR = system: SR
MDA-N = system: MDA-N
NCI/ADR-RES = system: NCI/ADR-RES
DU-145 = system: DU-145

SMILES	GI50 (SK-MEL-28)	GI50 (A498)	GI50 (HCT-15) [µM]	GI50 (HCT-116)	GI50 (CAKI-1)	GI50 (OVCAR-5)	GI50 (SNB-78)	GI50 (OVCAR-8)	GI50 (NCI-H23)	GI50 (SW-620)	GI50 (M19-MEL)	GI50 (U-251)	GI50 (UACC-257)	GI50 (HOP-62)	GI50 (EKVX)	GI50 (HT-29)	GI50 (SR)	GI50 (MDA-N)	GI50 (NCI/ADR-RES)	GI50 (DU-145)
CC1=C(C(=O)CC(=O)C(=O)Nc2ccc(Cl)cc2C)Sc2ccccc2N1	> 100 µM (inactive)	> 100 µM (inactive)	> 100	> 100 µM (inactive)	> 100 µM (inactive)	> 100 µM (inactive)	> 100 µM (inactive)	> 100 µM (inactive)	> 100 µM (inactive)	> 100 µM (inactive)	> 100 µM (inactive)	> 100 µM (inactive)	> 100 µM (inactive)	> 100 µM (inactive)	> 100 µM (inactive)	> 100 µM (inactive)	–	–	–	–
O=C(NCCCC/N=c1/cccccc1NCCCCNC(=O)OCc1ccccc1)OCc1ccccc1	22.1 µM (inactive)	> 10 µM (inactive)	8.05	9.98 µM (inactive)	20.9 µM (inactive)	17.1 µM (inactive)	24.6 µM (inactive)	18.9 µM (inactive)	19.3 µM (inactive)	17 µM (inactive)	20.2 µM (inactive)	16.1 µM (inactive)	15.2 µM (inactive)	21.2 µM (inactive)	22.9 µM (inactive)	6.04 µM (inactive)	–	–	–	–
CCOC(=O)C(=O)CC(=O)C(Br)C(Br)c1ccc(Cl)cc1 (configuration not stated)	29.7 µM (inactive)	–	33.5	–	40.7 µM (inactive)	> 100 µM (inactive)	44.2 µM (inactive)	34.9 µM (inactive)	30.5 µM (inactive)	39.6 µM (inactive)	23.2 µM (inactive)	–	29.5 µM (inactive)	> 100 µM (inactive)	> 100 µM (inactive)	18.6 µM (inactive)	–	–	–	–
CC(C)=CC(=O)CC(=O)C(=O)Nc1ccc(Cl)c(Cl)c1	> 100 µM (inactive)	> 100 µM (inactive)	> 100	> 100 µM (inactive)	–	> 100 µM (inactive)	> 100 µM (inactive)	> 100 µM (inactive)	> 100 µM (inactive)	> 100 µM (inactive)	> 100 µM (inactive)	> 100 µM (inactive)	> 100 µM (inactive)	> 100 µM (inactive)	> 100 µM (inactive)	> 100 µM (inactive)	> 100 µM (inactive)	–	–	–
CC(O)CNC(=O)C(C)Oc1ccc(OCC2CCCCC2)cc1 (configuration not stated)	> 100 µM (inactive)	20.7 µM (inactive)	> 100	> 100 µM (inactive)	–	–	> 100 µM (inactive)	> 100 µM (inactive)	–	–	> 100 µM (inactive)	> 100 µM (inactive)	73.6 µM (inactive)	–	–	> 100 µM (inactive)	–	–	–	–
N=C(N)NS(=O)(=O)c1ccc(NC(=O)c2cccc3c(Nc4ccc(S(=O)(=O)N=C(N)N)cc4)c4ccccc4nc23)cc1	82.8 µM (inactive)	47.4 µM (inactive)	> 100	38 µM (inactive)	> 10 µM (inactive)	> 100 µM (inactive)	24.8 µM (inactive)	32.3 µM (inactive)	44.3 µM (inactive)	31.4 µM (inactive)	47.4 µM (inactive)	28.8 µM (inactive)	> 100 µM (inactive)	> 100 µM (inactive)	71 µM (inactive)	42.1 µM (inactive)	–	–	–	–
CCOC(=O)CC(NC(=O)c1nc[nH]c1/N=N/N(C)C)C(=O)OCC (configuration not stated)	> 100 µM (inactive)	> 100 µM (inactive)	> 100	> 100 µM (inactive)	> 100 µM (inactive)	> 100 µM (inactive)	–	> 100 µM (inactive)	> 100 µM (inactive)	> 100 µM (inactive)	> 100 µM (inactive)	> 100 µM (inactive)	> 100 µM (inactive)	> 100 µM (inactive)	> 100 µM (inactive)	> 100 µM (inactive)	> 100 µM (inactive)	–	–	–
COc1ccc2c(c1)[n+]([O-])c(C(=O)C/C(=N/NC(=O)c1ccccc1O)C(=O)Nc1ccc(Cl)c(C(F)(F)F)c1)c(C)[n+]2[O-]	> 100 µM (inactive)	53.8 µM (inactive)	43.7	48.2 µM (inactive)	–	45.4 µM (inactive)	> 100 µM (inactive)	43.8 µM (inactive)	47.5 µM (inactive)	62.1 µM (inactive)	52.2 µM (inactive)	> 100 µM (inactive)	91.6 µM (inactive)	37.8 µM (inactive)	48.9 µM (inactive)	> 100 µM (inactive)	–	–	–	–
CC[C@H](C)N(CCN)C(=O)c1cc2ccccc2c(-c2ccccc2Cl)n1	13.5 µM (inactive)	4.07 µM (inactive)	4.42	2.85 µM (inactive)	5.57 µM (inactive)	14.7 µM (inactive)	14.3 µM (inactive)	14.2 µM (inactive)	12.8 µM (inactive)	14.9 µM (inactive)	–	11.6 µM (inactive)	1.91 µM (inactive)	17.5 µM (inactive)	11.5 µM (inactive)	7.74 µM (inactive)	10.8 µM (inactive)	–	–	–
CCN(CC)CCC(=O)NC1c2ccccc2Oc2c(C)cccc21 (configuration not stated)	> 100 µM (inactive)	–	> 100	> 100 µM (inactive)	–	> 100 µM (inactive)	> 100 µM (inactive)	> 100 µM (inactive)	> 100 µM (inactive)	> 100 µM (inactive)	> 100 µM (inactive)	> 100 µM (inactive)	> 100 µM (inactive)	> 100 µM (inactive)	> 100 µM (inactive)	> 100 µM (inactive)	> 100 µM (inactive)	–	–	–
O=C1OCC/C1=N/O	> 100 µM (inactive)	> 100 µM (inactive)	> 100	> 100 µM (inactive)	–	> 100 µM (inactive)	> 100 µM (inactive)	> 100 µM (inactive)	> 100 µM (inactive)	> 100 µM (inactive)	> 100 µM (inactive)	> 100 µM (inactive)	> 100 µM (inactive)	–	> 100 µM (inactive)	> 100 µM (inactive)	> 100 µM (inactive)	–	–	–
Cc1ccccc1NC(=O)C(=O)CC(=O)C1CCOC1=O (configuration not stated)	> 100 µM (inactive)	> 100 µM (inactive)	> 100	> 100 µM (inactive)	> 100 µM (inactive)	> 100 µM (inactive)	> 100 µM (inactive)	> 100 µM (inactive)	> 100 µM (inactive)	> 100 µM (inactive)	> 100 µM (inactive)	> 100 µM (inactive)	> 100 µM (inactive)	> 100 µM (inactive)	> 100 µM (inactive)	> 10 µM (inactive)	–	–	–	–
Cc1cccc(C(C)C)c1NC(=O)C(=O)C(C(=O)c1ccccc1F)C1OC(=O)c2ccccc21 (configuration not stated)	14.4 µM (inactive)	23.7 µM (inactive)	20.5	13.6 µM (inactive)	31.5 µM (inactive)	40 µM (inactive)	–	16.5 µM (inactive)	15 µM (inactive)	24.5 µM (inactive)	11.5 µM (inactive)	7.16 µM (inactive)	13 µM (inactive)	15.8 µM (inactive)	32.7 µM (inactive)	29.6 µM (inactive)	–	–	–	–
CCOC(=O)/C(=C\c1ccc(N(CCC#N)CCC#N)cc1C)NC(=O)/C=C/c1ccccc1	> 100 µM (inactive)	> 100 µM (inactive)	> 100	> 100 µM (inactive)	> 100 µM (inactive)	> 100 µM (inactive)	> 100 µM (inactive)	> 100 µM (inactive)	> 100 µM (inactive)	> 100 µM (inactive)	> 100 µM (inactive)	> 100 µM (inactive)	> 100 µM (inactive)	> 100 µM (inactive)	> 100 µM (inactive)	> 100 µM (inactive)	–	–	–	–
Fc1cccc(C2SCC3=Nc4ccccc4CN32)c1 (configuration not stated)	98.6 µM (inactive)	> 100 µM (inactive)	58.9	27.8 µM (inactive)	> 100 µM (inactive)	32.1 µM (inactive)	–	27 µM (inactive)	20.8 µM (inactive)	> 100 µM (inactive)	–	58.2 µM (inactive)	97.9 µM (inactive)	38.9 µM (inactive)	25.4 µM (inactive)	21.3 µM (inactive)	38.6 µM (inactive)	79.1 µM (inactive)	11 µM (inactive)	52.4 µM (inactive)
Cn1ccnc1C(c1nccn1C)C(C)(C)[N+](=O)[O-]	> 100 µM (inactive)	> 100 µM (inactive)	> 100	> 100 µM (inactive)	> 100 µM (inactive)	–	> 100 µM (inactive)	> 100 µM (inactive)	–	> 100 µM (inactive)	> 100 µM (inactive)	> 100 µM (inactive)	> 100 µM (inactive)	> 100 µM (inactive)	> 100 µM (inactive)	–	> 100 µM (inactive)	–	–	–
CN(C)c1ccc(/C=C/c2cc(-c3ccccc3)[n+](C)n2-c2ccccc2)cc1	0.597 µM (active)	0.774 µM (active)	3.61	0.125 µM (active)	1.91 µM (inactive)	1.6 µM (inactive)	–	0.207 µM (active)	0.0349 µM (active)	0.299 µM (active)	–	0.0573 µM (active)	0.122 µM (active)	0.54 µM (active)	0.138 µM (active)	0.0995 µM (active)	0.103 µM (active)	0.114 µM (active)	4.5 µM (inactive)	0.215 µM (active)
COC(=O)/C(C#N)=C1\NC(=O)c2ccccc21	> 100 µM (inactive)	> 100 µM (inactive)	> 100	> 100 µM (inactive)	–	> 100 µM (inactive)	> 100 µM (inactive)	> 100 µM (inactive)	> 100 µM (inactive)	> 100 µM (inactive)	> 100 µM (inactive)	> 100 µM (inactive)	> 100 µM (inactive)	> 100 µM (inactive)	> 100 µM (inactive)	> 100 µM (inactive)	> 100 µM (inactive)	–	–	–
